Assay results as given in patent publication US8003692B2 (priority 2007, dated 2011).
Where “and” joins values, the source holds several entries; their conditions need not be identical. Identical values can stand only once. Entries after “also recorded” stand apart in the source; their conditions may differ. Like-named read-outs stand apart in the source and are kept apart here.

What was measured:
[1] = target: anthrax edema factor (EF) (Bacillus anthracis, UniProt P40136); assay: cell-based
Cholera toxin (CT) = conditions: mouse, in vivo
cholera toxin = format: cell-based, Vibrio cholerae
[2] = tested on: bacterial adhesion to HeLa cells; format: cell-based
[3] = tested on: Enterotoxigenic E. coli (ETEC); conditions: mouse, in vivo
physchem = conditions: organic solvent or mixture
[4] = tested on: bacterial adhesion to Caco-2 cells; format: cell-based
[5] = tested on: ETEC H10507 or other enteric bacteria; format: cell-based, E. coli and Salmonella

Sequence of anthrax edema factor (EF) (P40136 whole entry, looked up): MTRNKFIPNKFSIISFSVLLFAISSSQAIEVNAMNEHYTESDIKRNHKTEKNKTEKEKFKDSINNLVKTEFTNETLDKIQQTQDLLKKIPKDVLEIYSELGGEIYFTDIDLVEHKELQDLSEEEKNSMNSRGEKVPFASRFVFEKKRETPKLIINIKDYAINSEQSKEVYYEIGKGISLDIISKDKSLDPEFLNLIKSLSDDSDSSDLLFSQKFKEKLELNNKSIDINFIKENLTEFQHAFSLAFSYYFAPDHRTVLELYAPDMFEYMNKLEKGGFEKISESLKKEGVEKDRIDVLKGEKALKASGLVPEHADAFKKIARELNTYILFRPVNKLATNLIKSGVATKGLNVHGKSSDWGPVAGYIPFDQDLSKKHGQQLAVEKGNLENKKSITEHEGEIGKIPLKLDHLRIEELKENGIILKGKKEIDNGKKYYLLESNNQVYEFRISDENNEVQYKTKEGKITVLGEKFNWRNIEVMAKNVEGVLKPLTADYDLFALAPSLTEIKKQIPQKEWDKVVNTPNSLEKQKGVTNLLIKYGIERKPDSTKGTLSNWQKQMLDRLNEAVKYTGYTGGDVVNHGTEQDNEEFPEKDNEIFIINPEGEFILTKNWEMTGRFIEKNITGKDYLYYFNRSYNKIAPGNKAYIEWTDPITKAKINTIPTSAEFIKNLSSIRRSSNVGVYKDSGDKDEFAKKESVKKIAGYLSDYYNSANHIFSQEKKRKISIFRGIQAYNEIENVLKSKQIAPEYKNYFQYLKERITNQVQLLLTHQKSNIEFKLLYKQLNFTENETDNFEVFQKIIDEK

Structure (SMILES): COc1cccc([C@H]2Nc3ccc(C(=O)O)cc3[C@@H]3C=CC[C@H]23)c1 (stereo in doubt) [FII-1, 4-(3-methoxy-phenyl)-3a,4,5,9b-tetrahydro-3H-cyclopenta[c]quinoline-8-carboxylic acid]
- inhibition of EF / Edema Toxin induced cAMP production (in words) [1]: effective; also recorded: more active than PGE2-imidazole
- IC50 ([1]; IC50 values): 1.8 to 7 µM
- cytotoxicity in LDH assay (in words) (RAW 264.7 cells): no obvious cytotoxic effect
- Reduction of fluid accumulation (Cholera toxin (CT)): No*
- Toxicity (Cholera toxin (CT)): No
- accumulation of intestinal fluid after experimental infection with CT (in words) (Cholera toxin (CT)): did not cause a significant reduction in fluid accumulation
- toxic effects in the animals (in words) (Cholera toxin (CT)): Toxic effects were observed

Structure (SMILES): COc1cccc(C2=CC(=O)CC(c3ccco3)C2)c1 (centres unmarked) [FI-1, 5-Furan-2-yl-3-(3-methoxy-phenyl)-cyclohex-2-enone]
- inhibition of EF / Edema Toxin induced cAMP production (in words) [1]: did not inhibit
- IC50 ([1]; IC50): 20 µM
- IC50 ([1]; Selected assay results (IC50)): 20.4 µM and > 100 µM
- toxic effects in the animals (in words) (Cholera toxin (CT); Swiss-Webster): toxic effects similar to FI-2
- Reduction of fluid accumulation (Cholera toxin (CT)): No
- Toxicity (Cholera toxin (CT)): Yes
- accumulation of intestinal fluid after experimental infection with CT (in words) (Cholera toxin (CT)): did not cause a reduction in fluid accumulation
- inhibition of cholera toxin induced cAMP (in words) (cholera toxin): did not inhibit

Structure (SMILES): COc1cccc(C2=CC(=O)CC(c3ccc(F)cc3)C2)c1 (centres unmarked) [FI-2, 5-(4-Fluoro-phenyl)-3-(3-methoxy-phenyl)-cyclohex-2-enone]
- inhibition of EF / Edema Toxin induced cAMP production (in words) [1]: cAMP inhibitory activity
- IC50 ([1]; IC50): 28 µM
- IC50 ([1]; Selected assay results (IC50)): 21.4 µM and 27.3 µM
- cytotoxicity in LDH assay (in words) (RAW 264.7 cells): minimal cytotoxic effect
- toxic effects in the animals (in words) (Cholera toxin (CT); Swiss-Webster): number of animals surviving the full 6 hour of the incubation was reduced by half
- Reduction of fluid accumulation (Cholera toxin (CT)): Yes
- Toxicity (Cholera toxin (CT)): No
- toxic effects in the animals (in words) (Cholera toxin (CT)): highly toxic

Structure (SMILES): COc1cccc(C2=C(C)C(=O)CC2)n1 [FI-3, 3-(6-Methoxy-pyridin-2-yl)-2-methyl-cyclopent-2-enone]
- inhibition of EF / Edema Toxin induced cAMP production (in words) [1]: most consistently been active; also recorded: dose-dependent activity and reduced extracellular cAMP accumulation
- IC50 ([1]; Selected assay results (IC50)): 38.8 µM and 64.1 µM and 11.1 µM and 29.4 µM
- IC50 ([1]; read-out: IC50): 30 µM
- IC50 ([1]; read-out: Selected assay results (IC50)): 29.9 µM
- toxic effects in the animals (in words) (Cholera toxin (CT); Swiss-Webster): several animals treated with the CT+FI-3 mixture died
- Reduction of fluid accumulation (Cholera toxin (CT)): Yes
- toxic effects in the animals (in words) (Cholera toxin (CT)): displayed edema, blood and fluid accumulation
- inhibition of cholera toxin induced cAMP (in words) (cholera toxin): most consistently been active; also recorded: inhibits cholera toxin induced cAMP, but not quite as well as PGE2-imidazole

Structure (SMILES): COc1cccc(C2=CC(=O)CCC2)n1 [FI-9, 3-(6-Methoxy-pyridin-2-yl)-cyclohex-2-enone]
- inhibition of EF / Edema Toxin induced cAMP production (in words) [1]: not active

Structure (SMILES): COc1ccc(C2=C(C)C(=O)CC2)cn1 [FI-14, 3-(6-Methoxy-pyridin-3-yl)-2-methyl-cyclopent-2-enone]
- inhibition of EF / Edema Toxin induced cAMP production (in words) [1]: good activity
- IC50 ([1]; read-out: IC-50): 24 µM

Structure (SMILES): COc1cccc(C2=CC(=O)CCC2)c1 [FI-15, 3-(3-Methoxy-phenyl)-cyclohex-2-enone]
- IC50 ([1]; read-out: IC-50): 30 µM

Structure (SMILES): O=C1C=C(c2ccc3[nH]ccc3c2)CCC1 [FI-17, 3-(1H-Indol-5-yl)-cyclohex-2-enone]
- inhibition of EF / Edema Toxin induced cAMP production (in words) [1]: comparable activity to the best compounds
- IC50 ([1]; read-out: IC-50): 56 µM

Structure (SMILES): O=C1C=C(c2ccc3c(c2)OCO3)CCC1 [FI-18, 3-Benzo[1,3]dioxol-5-yl-cyclohex-2-enone]
- IC50 ([1]; read-out: IC-50): 53 µM

Structure (SMILES): COc1cccc(C2=C(C)C(=O)CC2)n1 [FI-21, 3-(6-Methoxy-pyridin-2-yl)-2-methyl-cyclopent-2-enone]
- inhibition of EF / Edema Toxin induced cAMP production (in words) [1]: good activity
- IC50 ([1]; read-out: IC-50): 30 µM

Structure (SMILES): COc1ccccc1C1=CC(=O)CCC1 [FI-27, 3-(2-Methoxy-phenyl)-cyclohex-2-enone]
- IC50 ([1]; read-out: IC-50): 35 µM

Structure (SMILES): O=C(O)c1ccc(/N=C/c2c3ccccc3cc3ccccc23)cc1O [FIII-1, 4-[(Anthracen-9-ylmethylene)-amino]-2-hydroxy-benzoic acid]
- inhibition of EF / Edema Toxin induced cAMP production (in words) [1]: more active than PGE2-imidazole
- IC50 ([1]; read-out: IC50 values): 9 µM

Structure (SMILES): COc1ccc(C(=O)O)cc1NC(=O)c1cccc2c1C(=O)c1ccccc1-2 [FIV-1, 4-Methoxy-3-[(9-oxo-9H-fluorene-1-carbonyl)-amino]-benzoic acid]
- IC50 ([1]; IC50): 5.8 µM

Structure (SMILES): O=C(O)c1cc(NC(=O)c2cccc3c2C(=O)c2ccccc2-3)ccc1O [FIV-35, 2-Hydroxy-5-[(9-oxo-9H-fluorene-1-carbonyl)-amino]-benzoic acid]
- IC50 ([1]; IC50): 6.2 µM

Structure (SMILES): O=C(O)c1cccc(NC(=O)c2cccc3c2C(=O)c2ccccc2-3)c1O [FIV-39, 2-Hydroxy-3-[(9-oxo-9H-fluorene-1-carbonyl)-amino]-benzoic acid]
- IC50 ([1]; IC50): 5.6 µM

Structure (SMILES): O=C(O)c1cccc(NC(=O)c2cccc3c2C(=O)c2ccccc2-3)c1 [FIV-50, 3-[(9-Oxo-9H-fluorene-1-carbonyl)-amino]-benzoic acid]
- inhibition of EF / Edema Toxin induced cAMP production (in words) [1]: extremely effective; also recorded: more active than PGE2-imidazole
- IC50 ([1]; IC50): 1.7 to 9 µM
- IC50 ([1]; IC50 values): 1.7 to 5 µM
- IC50 ([1]; IC50 values, mean): 4.74 µM
- IC50 ([1]; IC50 values, range): 0.291 to 12.3 µM
- effect on bacterial adherence (in words) [2]: Reduction in adherence was only observed in ETEC
- cytotoxicity in LDH assay (in words) (RAW 264.7 cells): no obvious cytotoxic effect
- differences in the number of bacteria recovered [3]: 3 logs
- Reduction of fluid accumulation (Cholera toxin (CT)): Yes
- Toxicity (Cholera toxin (CT)): No
- solubility (physchem): ≥ 100 mM
- effect on bacterial adherence (in words) [4]: no reduction in adherence
- effect on bacterial growth rate (in words) [5]: no effect on growth

Structure (SMILES): COC(=O)c1cccc(NC(=O)c2cccc3c2C(=O)c2ccccc2-3)c1C [FIV-54, 2-Methyl-3-[(9-oxo-9H-fluorene-1-carbonyl)-amino]-benzoic acid methyl ester]
- IC50 ([1]; IC50): 12.9 µM

Structure (SMILES): Cc1c(NC(=O)c2cccc3c2C(=O)c2ccccc2-3)cccc1C(=O)O [FIV-55, 2-Methyl-3-[(9-oxo-9H-fluorene-1-carbonyl)-amino]-benzoic acid]
- IC50 ([1]; IC50): 11.4 µM

Structure (SMILES): COC(=O)c1ccc(OC)c(NC(=O)c2cccc3c2C(=O)c2ccccc2-3)c1 [FIV-58, 4-Methoxy-3-[(9-oxo-9H-fluorene-1-carbonyl)-amino]-benzoic acid methyl ester]
- IC50 ([1]; IC50): 7.2 µM

Structure (SMILES): O=C(Nc1ccc(F)c(Cl)c1)c1cccc2c1C(=O)c1ccccc1-2 [FIV-60, 9-Oxo-9H-fluorene-1-carboxylic acid (3-chloro-4-fluoro-phenyl)-amide]
- IC50 ([1]; IC50): 3.8 µM

Structure (SMILES): O=C(Nc1ccccc1)c1cccc2c1C(=O)c1ccccc1-2 [FIV-61, 9-Oxo-9H-fluorene-1-carboxylic acid phenylamide]
- IC50 ([1]; IC50): 28.6 µM

Structure (SMILES): CN(C)c1cccc(NC(=O)c2cccc3c2C(=O)c2ccccc2-3)c1 [FIV-65, 9-Oxo-9H-fluorene-1-carboxylic acid (3-dimethylamino-phenyl)-amide]
- IC50 ([1]; IC50): 1.5 µM

Structure (SMILES): O=C(Nc1cccc(OC(F)(F)F)c1)c1cccc2c1C(=O)c1ccccc1-2 [FIV-67, 9-Oxo-9H-fluorene-1-carboxylic acid (3-trifluoromethoxy-phenyl)-amide]
- IC50 ([1]; IC50): 6.9 µM

Structure (SMILES): N=C(N)c1cccc(NC(=O)c2cccc3c2C(=O)c2ccccc2-3)c1 [FIV-68, 9-Oxo-9H-fluorene-1-carboxylic acid (3-carbamimidoyl-phenyl)-amide]
- IC50 ([1]; IC50): 2.71 µM

Structure (SMILES): N#Cc1ccc(NC(=O)c2cccc3c2C(=O)c2ccccc2-3)c(Cl)c1 [FIV-70, 9-Oxo-9H-fluorene-1-carboxylic acid (2-chloro-4-cyano-phenyl)-amide]
- IC50 ([1]; IC50): 50 µM
